In patent US20250127799A1, “DRUG CONJUGATES FOR BONE MARROW PROTECTION” (priority 2023, published 2025):
Peptide text beside a SMILES is read from it. * marks the point of attachment. X1 = O=C(CCCCCN1C(=O)CC(*)C1=O)NCCCC(O)(P(=O)(O)O)P(=O)(O)O; X2 = O=P(O)(O)SCCNCCCN*

What was measured:
[1] = target: matrix metalloproteinase 9 (MMP9) (Homo sapiens, UniProt P14780); assay: In vitro matrix metalloproteinase-based conjugate cleavage; format: biochemical; conditions: isolated enzyme, MMP9, 37° C., up to 20 h, read-out: T1/2 of cleavage (converted)
matrix metalloproteinase 9 (MMP9), sequence (P14780 94-707, species assumed): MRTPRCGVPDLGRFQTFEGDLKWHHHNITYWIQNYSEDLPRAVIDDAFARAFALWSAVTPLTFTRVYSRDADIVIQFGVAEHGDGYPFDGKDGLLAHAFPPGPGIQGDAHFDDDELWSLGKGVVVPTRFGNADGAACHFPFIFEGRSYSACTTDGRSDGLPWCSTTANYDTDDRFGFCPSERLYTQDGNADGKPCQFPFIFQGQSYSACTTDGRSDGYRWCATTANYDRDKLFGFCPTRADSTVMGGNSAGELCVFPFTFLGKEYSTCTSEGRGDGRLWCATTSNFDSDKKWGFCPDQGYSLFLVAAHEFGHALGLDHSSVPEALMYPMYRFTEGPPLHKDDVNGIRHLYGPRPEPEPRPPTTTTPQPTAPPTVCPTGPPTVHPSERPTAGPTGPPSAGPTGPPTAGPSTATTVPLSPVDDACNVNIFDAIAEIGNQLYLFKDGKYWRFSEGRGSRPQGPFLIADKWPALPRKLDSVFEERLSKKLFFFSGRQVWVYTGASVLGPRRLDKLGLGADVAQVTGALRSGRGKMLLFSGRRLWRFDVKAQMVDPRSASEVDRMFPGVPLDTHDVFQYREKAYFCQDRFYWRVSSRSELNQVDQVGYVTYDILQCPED
Experimental: In this exemplary representative cleavage experiment, a 90 μL stock solution of protective drug conjugate (1 mg/mL) was mixed with 2 μL of matrix metalloproteinase 9 (MMP9) (10 unit/μL) and 8.2 μL of 50 mM CaCl2 solution, followed by incubation at 37° C. for up to 20 h. A 10 μL sample was taken at 0.3, 1, 2, 4, 9, or 20 h for the HPLC analysis. Three conjugates having different peptide sequences (Conjugates 1-3) were used in this test: Conjugate 1-peptide sequence of CPLSLYAL (SEQ ID NO: 65); Conjugate 2-peptide sequence of CPLSLYSL (SEQ ID NO: 66); and Conjugate 3-peptide sequence of CPLGLAL (SEQ ID NO: 67). The concentrations of the conjugate residual in samples were normalized and presented as cleavage ratios.

[2] = Conjugate cleavage in fresh bone marrow aspirate (HPLC); format: in vitro ADME; conditions: fresh bone marrow aspirate; human bone marrow aspirate, same donor, 37° C., up to 6 h; read-out: time to reach 50% conjugate cleavage (converted)
Experimental: The proteolytic cleavage of conjugates determines the therapeutic window, which is controlled by the specific peptide sequence. In a representative cleavage experiment, a […] stock solution of a conjugate (30 mg/mL) was mixed with 90 μL of fresh bone marrow aspirate, followed by incubation at 37° C. for up to 6 h. A 10 μL sample was taken every hour, diluted in 90 μL acetonitrile to precipitate proteins and extract conjugates and cleavage products. The concentrations of the conjugates in samples were determined by HPLC, normalized, and presented as the cleavage ratio.

CD2F1 male mice = assay: In vivo radioprotective effects: 30-day survival after Cobalt-60 gamma irradiation; conditions: 24 h before 9.2 Gy
Experimental: (§1) CD2F1 male mice (N=16) were subcutaneously (sc) injected with a single dose of two different conjugates. For one protective drug conjugate (Conjugate 1), the tested doses were 200, 400, and 800 mg/kg. The structure of Conjugate 1 included amifostine as the protective drug, alendronate as the bone-targeting ligand, and a protease-cleavable peptide having the sequence of CKPLGLWAL (SEQ ID NO: 33) with acetylation at the N-terminus (e.g., AcCKPLGLWAL; SEQ ID NO: 74). […] The irradiated mice were monitored for survival for 30 days post-irradiation. […] For the vehicle control group, the mortalities of mice occurred during 8 to 17 days post-irradiation, and the final survival rate was 6.25% (1 out of 16 survived), indicating significant mortality by gamma-irradiation.
For another protective drug conjugate (Conjugate 2), the tested doses were 250, 500, 600, and 700 mg/kg, and the irradiation was conducted at 24 h post-drug administration. The structure of Conjugate 2 included amifostine as the protective drug, alendronate as the bone-targeting ligand, and a protease-cleavable peptide having the sequence of CPLGLYAL (SEQ ID NO: 29) with acetylation at the N-terminus (e.g., AcCPLGLYAL; SEQ ID NO: 76).
as §1, with “a” for “two different conjugates. For one”, “1), and” for “1),”, “250, 300,” for “200, 400,”, “350” for “800”, “0% (0” for “6.25% (1”
as §1, with “CD2F1 male mice (N=16) were subcutaneously (sc) injected CD2F1” for “CD2F1”, “a” for “two different conjugates. For one”, “1), and” for “1),”, “250, 300,” for “200, 400,”, “350” for “800”
CD2F1 male mice (N=16) were subcutaneously (sc) injected CD2F1 male mice (N=16) were subcutaneously (sc) injected with a single dose of a protective drug conjugate (Conjugate 1), and the tested doses were 50, 100, and 200 mg/kg. The structure of Conjugate 1 included amifostine as the protective drug, alendronate as the bone-targeting ligand, and a protease-cleavable peptide having the sequence of CKPLGLWAL (SEQ ID NO: 33) with acetylation at the N-terminus (e.g., AcCKPLGLWAL; SEQ ID NO: 74). […] The irradiated mice were monitored for survival for […] post-irradiation. […] For the vehicle control group, the mortalities of mice occurred during 8 to 17 days post-irradiation, and the final survival rate was 0% (0 out of 16 survived), indicating significant mortality by gamma-irradiation.
CD2F1 male mice (N=16) were subcutaneously (sc) injected CD2F1 male mice (N=16) were subcutaneously (sc) injected with a single dose of a protective drug conjugate, i.e., Conjugate 3. The tested doses were 250, 300, and 350 mg/kg. […]

CC(=O)N[C@@H](CSC1CC(=O)N(CCCCCC(=O)NCCCC(O)(P(=O)(O)O)P(=O)(O)O)C1=O)C(=O)N1CCC[C@H]1C(=O)N[C@@H](CC(C)C)C(=O)NCC(=O)N[C@@H](CC(C)C)C(=O)N[C@@H](Cc1ccc(O)cc1)C(=O)N[C@@H](C)C(=O)N[C@@H](CC(C)C)C(=O)NCCCNCCSP(=O)(O)O (stereo partly drawn) [Conjugate 2] (Ac-C(X1)PLGLYAL-X2)
half-life at 0.898 mg/mL [1]: ~7.5 h | half-life at 3 mg/mL [2]: 4.2 h | 30-day survival rate (CD2F1 male mice; 250 mg/kg sc): 68.75% | 30-day survival rate (CD2F1 male mice; 500 mg/kg sc): 75% | 30-day survival rate (CD2F1 male mice; 600 mg/kg sc): 93.75% | 30-day survival rate (CD2F1 male mice; 700 mg/kg sc): 100%
